From paper PMC7217877, “N-AS-triggered SPMs are direct regulators of microglia in a model of Alzheimer’s disease” (Nature Communications, 2020)
Values joined by “and” are separate entries in the source; they are usually repeats but may differ in a detail not shown here. Identical values can stand only once.

Key:
APP/PS1 mice = assay: mRNA levels of inflammatory markers in cortex (real-time PCR, Fig 6j); type: in vivo, mouse; design: iNOS mRNA level (Figure 6j) / IL1b mRNA level (Figure 6j) / Arg1 mRNA level (Figure 6j) / IL4 mRNA level (Figure 6j) / TGFb mRNA level (Figure 6j) / TNF-a mRNA level (Figure 6j) / IL6 mRNA level (Figure 6j): scale not given here
Procedure: Transgenic mouse lines over-expressing the hAPP695swe (APP) and presenilin-1M146V (PS1) mutations were originated from GlaxoSmithKline (Harlow, UK)[32] and maintained as described previously. We purchased 5×FAD mice from Jackson Labs (Stock number. 34840-JAX). Because APP/PS1 and 5xFAD mice show sex differences in disease progression, we used only male mice. To examine possible therapeutic effect of N-AS and aspirin in APP/PS1 mice, the N-AS (30 mg kg^−1, Sigma-Aldrich, 01912) was injected daily s.c. for 8 weeks to 7-months-old APP/PS1 mice until the age of 9 months, and aspirin (2 mg kg^−1, Sigma-Aldrich, A5376)[33] was administrated orally to 7-months-old APP/PS1 mice for 8 weeks. Also, to confirm possible therapeutic efficacy of N-AS in 5×FAD, the N-AS (30 mg kg^−1, Sigma-Aldrich, 01912) was injected daily s.c. for 4 weeks to 3-months-old 5×FAD mice until the age of 4 months. Block randomization method was used to allocate the animals to experimental groups. To eliminate the bias, we were blinded in experimental progress such as data collection and data analysis. Mice were housed at temperature of 22 °C and a 12 h day/12 h night cycle with free access to tap water and food pellets. All protocols were approved by the Kyungpook National University Institutional Animal Care and Use Committee.
For total RNA extraction from the microglia derived from WT, APP/PS1, APP/PS1 mice treated with N-AS, and APP/PS1 mice treated with aspirin, the cells were isolated from the cortex of WT, APP/PS1, APP/PS1 mice treated with N-AS, or aspirin using the methods described above. Total RNA was isolated using the kit components according to the manufacturer’s instructions (RNeasy mini kit, 74134, QIAGEN). cDNA was synthesized from 5 μg of total RNA using a commercially available kit (Takara). Quantitative real-time PCR was performed using a Corbett research RG-6000 real-time PCR instrument. Primers are described in Supplementary Table 5.

microglia [1] = assay: sphingosine level in primary cells (UPLC); type: cell-based, C57BL/6 mice; details: Ab 10mM, replicates
Procedure: To confirm the generation and roles of N-AS in neurons, cells from E18 C57BL/6 mice were prepared as previously described. Cortices were dissected and then dissociated followed by incubation in papain (Worthington) at 37 °C for 15 min. Neurons were plated on poly-L-lysine-coated coverslips with neuronal culture medium, serum-free Neurobasal medium (Gibco) containing 2% B27 supplements (Gibco), 1 mM Glutamax supplement (Gibco), and 100 U ml^−1 streptomycin/ 100 U ml^−1 penicillin (Gibco) at 37 °C in a humidified atmosphere of 5% CO2. Aβ 1–42 (10 μM, 24 h, Invitrogen, 03112) was exposed to neurons and the cells were analyzed for the generation and roles of N-AS. Primary astrocyte cultures were prepared from C57BL/6 mice as described previously. […] The human microglia treated with Aβ 1–42 and/or zileuton was incubated with N-AS (2.5 μM, 2 h, Sigma-Aldrich, 01912), and were analyzed for the generation and roles of N-AS.
To quantify the sphingosine levels, the dried lipid extract was resuspended in 0.2% Igepal CA-630. […] The fluorescent sphingosine was monitored using a model 474 scanning fluorescence detector (Waters). Quantification of the sphingosine was calculated from sphingosine calibration curves using the Waters Millennium software.

microglia [2] = assay: acetyl-CoA level in primary cells (assay kit); type: cell-based, C57BL/6 mice; details: Ab 10mM, replicates
Procedure: To confirm the generation and roles of N-AS in neurons, cells from E18 C57BL/6 mice were prepared as previously described. Cortices were dissected and then dissociated followed by incubation in papain (Worthington) at 37 °C for 15 min. Neurons were plated on poly-L-lysine-coated coverslips with neuronal culture medium, serum-free Neurobasal medium (Gibco) containing 2% B27 supplements (Gibco), 1 mM Glutamax supplement (Gibco), and 100 U ml^−1 streptomycin/ 100 U ml^−1 penicillin (Gibco) at 37 °C in a humidified atmosphere of 5% CO2. Aβ 1–42 (10 μM, 24 h, Invitrogen, 03112) was exposed to neurons and the cells were analyzed for the generation and roles of N-AS. Primary astrocyte cultures were prepared from C57BL/6 mice as described previously. In brief, after removal of the meninges, postnatal day 7 (P7) mouse brain tissues were minced and incubated in a rocking water bath at 37 °C for 30 min in the presence of 0.25% trypsin-EDTA (Sigma-Aldrich). Enzyme-digested dissociated cells were triturated with astrocyte-specific medium (DMEM/F12 containing 10% FBS and 1% penicillin-streptomycin) and centrifuged at 155×g for 8 min. […] The human microglia treated with Aβ 1–42 and/or zileuton was incubated with N-AS (2.5 μM, 2 h, Sigma-Aldrich, 01912), and were analyzed for the generation and roles of N-AS. […]

[3] = APP/PS1 + N-AS, individual animals

Row | Compound | Arg1 mRNA level (Figure 6j) (APP/PS1 mice; [3]) | IL1b mRNA level (Figure 6j) (APP/PS1 mice; [3]) | IL4 mRNA level (Figure 6j) (APP/PS1 mice; [3]) | IL6 mRNA level (Figure 6j) (APP/PS1 mice; [3]) | TGFb mRNA level (Figure 6j) (APP/PS1 mice; [3]) | TNF-a mRNA level (Figure 6j) (APP/PS1 mice; [3]) | iNOS mRNA level (Figure 6j) (APP/PS1 mice; [3]) | inflammatory response (mRNA of inflammatory markers) (APP/PS1 mice; N-AS vs vehicle APP/PS1) | sphingosine (Fig 3f) (microglia [1]) | acetyl-CoA (Fig 3e) (microglia [2])
1 | CCCCCCCCCCCCC/C=C/[C@@H](O)[C@H](CO)NC(C)=O [N-AS, N-((2S,3R,E)-1,3-Dihydroxyoctadec-4-en-2-yl)acetamide] | 1.307 and 2.185 and 1.935 and 1.275 and 1.335 and 1.465 | 1.25 and 0.7 and 1.3 and 0.95 and 0.88 and 1.1 | 0.765 and 1.235 and 0.984 and 0.825 | 0.7652 and 0.81 and 0.821 and 0.83 and 0.957 | 1.79 and 2.4 and 2.595 and 2.81 | 0.865 and 1.34 and 1.37 and 1.005 and 1.085 | 0.92 and 1.42 and 1.85 and 1.2 and 0.78 and 0.55 | improved |  | 
2 | Ab: Aβ 1–42 (Invitrogen, 03112) used to induce an AD environment in cells |  |  |  |  |  |  |  |  | 0.15 and 0.136 and 0.128 and 0.16 and 0.14 and 0.144 | 0.5557 and 0.2327 and 0.5301 and 0.5514 and 0.536 and 0.6185
